#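 Protocol summary: plate cells (96-well), add compound at 5 concentrations, incubate 48 h, interpolate endpoints linearly. GI50: concentration for 50% inhibition of growth. TGI is the concentration that stops growth completely.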
# Tests used:
# Assay in all cases: NCI-60 cell line screen, 48 h
# [1] = tested on: MCF7 breast
# [2] = tested on: HCC-2998 colon
# [3] = tested on: SR leukemia
# [4] = tested on: T-47D breast
# [5] = tested on: SK-MEL-28 melanoma
# [6] = tested on: A498 renal
# [7] = tested on: NCI/ADR-RES ovarian
# [8] = tested on: A549 NSCLC
# [9] = tested on: IGROV1 ovarian
# [10] = tested on: SK-OV-3 ovarian
# [11] = tested on: U251 CNS
# [12] = tested on: MOLT-4 leukemia
# [13] = tested on: RPMI-8226 leukemia
# [14] = tested on: M14 melanoma
# [15] = tested on: CCRF-CEM leukemia
# [16] = tested on: PC-3 prostate
# [17] = tested on: HT29 colon
# [18] = tested on: HCT-15 colon
# [19] = tested on: OVCAR-4 ovarian
# [20] = tested on: SN12C renal
# [21] = tested on: NCI-H226 lung
# [22] = tested on: TK-10 renal
# [23] = tested on: ACHN renal
# [24] = tested on: KM12 colon
# [25] = tested on: HS 578T breast
# [26] = tested on: LOX IMVI melanoma
# [27] = tested on: SF-295 CNS
# [28] = tested on: SK-MEL-5 melanoma
# [29] = tested on: HOP-62 NSCLC
# [30] = tested on: MDA-MB-435
# [31] = tested on: BT-549 breast
# [32] = tested on: UACC-257 melanoma
# [33] = tested on: K-562 leukemia
# [34] = tested on: OVCAR-8 ovarian
# [35] = tested on: RXF 393 renal
# [36] = tested on: SF-539 CNS
# [37] = tested on: EKVX NSCLC
# [38] = tested on: NCI-H460 lung
# [39] = tested on: HOP-92 NSCLC
# [40] = tested on: OVCAR-3 ovarian
# [41] = tested on: CAKI-1 renal
# [42] = tested on: COLO 205 colon
# [43] = tested on: OVCAR-5 ovarian
# [44] = tested on: MDA-MB-231 breast
# [45] = tested on: SF-268 CNS
# [46] = tested on: UACC-62 melanoma
# [47] = tested on: SK-MEL-2 melanoma
# [48] = tested on: 786-0 renal
# [49] = tested on: UO-31 renal
# [50] = tested on: MALME-3M melanoma
# [51] = tested on: SNB-19 CNS
# [52] = tested on: DU-145 prostate
# [53] = tested on: NCI-H23 lung
# [54] = tested on: MDA-MB-468 breast
# [55] = tested on: HL-60(TB) leukemia
# [56] = tested on: NCI-H522 lung
# [57] = tested on: SW-620 colon
structure (smiles),measurement,setting,value
COc1ccc(C(=O)/C=C/c2ccc(Cl)c(Cl)c2)cc1S(N)(=O)=O,GI50,[1],1050 nM
same,TGI,[1],3160 nM
same,GI50,[2],1400 nM
same,TGI,[2],2710 nM
same,GI50,[3],797 nM
same,TGI,[3],10200 nM
same,GI50,[4],1970 nM
same,TGI,[4],5570 nM
same,GI50,[5],1750 nM
same,TGI,[5],3260 nM
same,GI50,[6],8860 nM
same,TGI,[6],22100 nM
same,GI50,[7],2250 nM
same,TGI,[7],5930 nM
same,GI50,[8],2170 nM
same,TGI,[8],10500 nM
same,GI50,[9],2000 nM
same,TGI,[9],5130 nM
same,GI50,[10],5530 nM
same,TGI,[10],18000 nM
same,GI50,[11],1410 nM
same,TGI,[11],2930 nM
same,GI50,[12],2350 nM
same,TGI,[12],6750 nM
same,GI50,[13],1670 nM
same,TGI,[13],5960 nM
same,GI50,[14],1860 nM
same,TGI,[14],3900 nM
same,GI50,[15],2700 nM
same,TGI,[15],7950 nM
same,GI50,[16],1860 nM
same,TGI,[16],5070 nM
same,GI50,[17],1460 nM
same,TGI,[17],2770 nM
same,GI50,[18],496 nM
same,TGI,[18],1810 nM
same,GI50,[19],1600 nM
same,TGI,[19],2970 nM
same,GI50,[20],1390 nM
same,TGI,[20],2740 nM
same,GI50,[21],3040 nM
same,TGI,[21],13400 nM
same,GI50,[22],2020 nM
same,TGI,[22],5890 nM
same,GI50,[23],1710 nM
same,TGI,[23],3110 nM
same,GI50,[24],888 nM
same,TGI,[24],2430 nM
same,GI50,[25],6010 nM
same,TGI,[25],52000 nM
same,GI50,[26],653 nM
same,TGI,[26],1930 nM
same,GI50,[27],1740 nM
same,TGI,[27],3770 nM
same,GI50,[28],2450 nM
same,TGI,[28],6890 nM
same,GI50,[29],1890 nM
same,TGI,[29],4750 nM
same,GI50,[30],2420 nM
same,TGI,[30],7260 nM
same,GI50,[31],1630 nM
same,TGI,[31],3330 nM
same,GI50,[32],2500 nM
same,TGI,[32],8990 nM
same,GI50,[33],2030 nM
same,TGI,[33],10800 nM
same,GI50,[34],2000 nM
same,TGI,[34],5750 nM
same,GI50,[35],1740 nM
same,TGI,[35],3500 nM
same,GI50,[36],1670 nM
same,TGI,[36],3250 nM
same,GI50,[37],2120 nM
same,TGI,[37],4730 nM
same,GI50,[38],2720 nM
same,TGI,[38],8220 nM
same,GI50,[39],2290 nM
same,TGI,[39],7310 nM
same,GI50,[40],1190 nM
same,TGI,[40],2550 nM
same,GI50,[41],1750 nM
same,TGI,[41],4190 nM
same,GI50,[42],1830 nM
same,TGI,[42],3430 nM
same,GI50,[43],1600 nM
same,TGI,[43],3340 nM
same,GI50,[44],1990 nM
same,TGI,[44],4110 nM
same,GI50,[45],2910 nM
same,TGI,[45],11900 nM
same,GI50,[46],1480 nM
same,TGI,[46],2960 nM
same,GI50,[47],5660 nM
same,TGI,[47],18600 nM
same,GI50,[48],1620 nM
same,TGI,[48],3110 nM
same,GI50,[49],1270 nM
same,TGI,[49],2520 nM
same,GI50,[50],2150 nM
same,TGI,[50],5170 nM
same,GI50,[51],1880 nM
same,TGI,[51],4210 nM
same,GI50,[52],3500 nM
same,TGI,[52],12800 nM
same,GI50,[53],1750 nM
same,TGI,[53],3430 nM
same,GI50,[54],1470 nM
same,TGI,[54],2980 nM
same,GI50,[55],1880 nM
same,TGI,[55],6310 nM
same,GI50,[56],1580 nM
same,TGI,[56],3160 nM
same,GI50,[57],1340 nM
same,TGI,[57],3520 nM

# — PubChem BioAssay (NCI)
